Experimental data published in patent EP3290438A1, “FOOD ALLERGEN EXTRACTS AND METHODS OF PRODUCING AND USING THE SAME” (CONSEJO SUPERIOR DE INVESTIGACIONES CIENTIFICAS, priority 2016, dated 2018).

T1: Gad m 1 peptide 12 (12-mer overlapping synthetic peptide) (Atlantic cod)
T1 construct: Immobilized on the SPOT membrane, about 10 nmol per spot
T1 peptide: GSFDHKAFFTKV

T2: Gad m 1 peptide 13 (12-mer overlapping synthetic peptide) (Atlantic cod)
T2 construct: Immobilized on the SPOT membrane, about 10 nmol per spot
T2 peptide: FDHKAFFTKVGL

T3: Gad m 1 peptide 14 (12-mer overlapping synthetic peptide) (Atlantic cod)
T3 construct: Immobilized on the SPOT membrane, about 10 nmol per spot
T3 peptide: HKAFFTKVGLAA

T4: Gad m 1 peptide 15 (12-mer overlapping synthetic peptide) (Atlantic cod)
T4 construct: Immobilized on the SPOT membrane, about 10 nmol per spot
T4 peptide: AFFTKVGLAAKS

B1: rGad m 1 wt, amyloid fibrils (formed in 5 mM EDTA) (other)
chain: AFAGILNDADITAALAACKAEGSFDHKAFFTKVGLAAKSSADIKKVFEIIDQDKSDFVEEDELKLFLQNFSAGARALSDAETKVFLKAGDSDGDGKIGVDEFGAMIKA
notes: Same chain as the wt monomer, in the amyloid state; also called wt-F; rGad m 1 amyloids; not shown: N-terminal histidine tag of the pET15b construct

Tests used:
[1] = tested on: IgE in sera from fish-allergic patients; experiment: Peptide array (SPOT) immunoassay, IgE binding; parameters: species or system human; conditions: sera from ten fish-allergic patients (groups S-I, S-II), 1/10 dilution; 10 nmol/spot
From the text: It was first characterized the sequence elements to address how amyloid formation contributes to the IgE reactivity of Gad m 1. A set of 12-mer overlapping synthetic peptides with an offset of 2 that correspond to the sequence of Gad m 1 was used in an array-based immunoassay (Fig. 6).
This peptide length and surface density (10 nmol/spot) ensures the preservation of amyloid formation (which is conventionally limited to 6 residues), and differs from previous microarrays assays using a 15-mer with an offset of 3 (Perez-Gordo, M. et al. Mol Nutr Food Res 57, 1283-1290, (2013)).
The peptide membranes were assayed using the sera from ten patients who are allergic to fish (Figs. 1, 2). The IgE binding intensity was variable among the tested sera; however, it was possible to identify four major binding regions (I-IV) and two major groups of sera (S-I: S2, S3, S4, S7 and S8; S-II: S1, S5, S6, S12 and S13). […] Of these four regions, region I overlaps the sequence predicted as the cross-β sheet forming (adhesive) segment in helix A, whereas regions III and IV overlap the immunologically reactive sites located on the junctions between the AB and CD domains (residues 33-44) and between the CD and EF domains (residues 65-74) (Martinez, J. et al. Swiss Med Wkly 145, (2015)). Nevertheless, the reactivity of the Ca^2+-binding loop of the EF domain (residues 88-96) and of the C-terminal (residues 95-109) regions was not detected by these sera, as probed by both IgE and IgG4 binding (Fig. 1d) (Perez-Gordo, M. et al. Int Arch Allergy Imm 157, 31-40, (2012)). It merits comment that IgG4 reactivity, which is considered as a protective response in allergy, is largely detected in region IV for both sera groups (Perez-Gordo, M. et al. Int Arch Allergy Imm 157, 31-40, (2012)).
Peptide arrays (SPOT). Dodecapeptides spanning the whole sequence of Gad m 1, with an overlap of ten residues, were solid-phase synthesized and immobilized (≈10 nmol per spot) on an Amino-PEG500-UC540 sheet at the National Centre for Biotechnology (CNB-CSIC, Madrid). Before use, the membranes were rinsed with ethanol, washed three times with TBS (25 mM Tris-HCl, pH 7.5, containing 137 mM NaCl and 2.7 mM KCI), and incubated in TBS containing 1% BSA (w/v) and 2 mM EDTA for 1 h. The membranes were then probed for 2 h with sera from patients who are allergic to fish (1/10 dilution) and the anti-amyloid fibril OC antibody (AB2286 Merck Millipore, 1/2000 dilution), prepared in TBST (TBS containing 0.05% Tween-20) supplemented with 0.5% BSA (w/v) or with rGad m 1 chains (2.5 µM) in TBS. After extensive washes with TBST, a 30 min incubation with either horseradish peroxidase-labeled anti-human IgE (Abcam ab99806, 1/2000 dilution), anti-human IgG4 (Abcam ab99823, 1/4000 dilution), goat anti-rabbit IgG (Sigma, 1/5000 dilution) or anti-6X His tag® antibody (Abcam ab18184, dilution 1/1000) was performed. The signal was developed with the ECL-Western-blotting reagent (Bio-Rad) and detected with a ChemiDoc XRS instrument (Martinez, J. et al. Swiss Med Wkly 145, (2015)). When required, the membranes were regenerated by sequential incubation with TBS containing 8M urea, 1% SDS and 0.5% β-mercaptoethanol for 30 min at 55 °C and three times with acetic acid/ethanol/Milli-Q water (10:50:40). Regions were considered major allergenic epitopes when at least two overlapping peptides were involved. […]

[2] = Peptide array membranes probed with thioflavin T (ThT); type: physicochemical
Protocol: The presence of amyloid folds was then assayed using the conformation-selective OC antibody, which detects oligomer and fibril assemblies produced during the protein fibrillization process and the amyloid probe thioflavin T (ThT) (Kayed, R. et al. Molecular neurodegeneration 2, 18, (2007)). […] Of these regions, peptides 2 and 41 overlap the adhesive segments in helix A and E, predicted by the ZipperDB algorithm (Goldschmidt, L., et al. Proceedings of the National Academy of Sciences of the United States of America 107, 3487-3492, (2010)), peptides 12-16 and 34 lie over the IgE-binding regions III and IV, peptide 24 contains part of the Ca^2+-binding site of domain CD, and peptide 49 corresponds to a previously described epitope groups (Perez-Gordo, M. et al. Mol Nutr Food Res 57, 1283-1290, (2013)) (Fig. 2 and Fig. 7). […] It must be noted that peptides containing the helix C sequence, which was predicted to be an adhesive segment, were not detected by either the OC or ThT binding assays.

[3] = biological target: T1, Gad m 1 peptide 12 (12-mer overlapping …); experiment: SPOT peptide array incubated with rGad m 1 chains (2.5 µM), anti-6XHis detection
[4] = biological target: T2, Gad m 1 peptide 13 (12-mer overlapping …); experiment: as above
[5] = biological target: T3, Gad m 1 peptide 14 (12-mer overlapping …); experiment: as above
[6] = biological target: T4, Gad m 1 peptide 15 (12-mer overlapping …); experiment: as above

Molecule	IgE binding [1]	also measured
7: 12-mer overlapping synthetic peptide of the Gad m 1 sequence, SEQ ID NO: 7 (TAALAACKAEGS) [compound 7]	only recognized by the sera group S-II	–
1: 12-mer overlapping synthetic peptide of the Gad m 1 sequence, SEQ ID NO: 1 (MAFAGILNDADI) [compound 1]	only recognized by the sera group S-II	–
6: 12-mer overlapping synthetic peptide of the Gad m 1 sequence, SEQ ID NO: 6 (DITAALAACKAE) [compound 6]	only recognized by the sera group S-II	–
18: 12-mer overlapping synthetic peptide of the Gad m 1 sequence, SEQ ID NO: 18 (GLAAKSSADIKK) [compound 18]	variable recognition by the distinct sera	–
19: 12-mer overlapping synthetic peptide of the Gad m 1 sequence, SEQ ID NO: 19 (AAKSSADIKKVF) [compound 19]	variable recognition by the distinct sera	–
12: 12-mer overlapping synthetic peptide of the Gad m 1 sequence, SEQ ID NO: 12 (GSFDHKAFFTKV) [compound 12]	–	ThT fluorescence emission [2]: increased fluorescence emission
B1	–	binding result [3]: binds; binding result [4]: binds; binding result [5]: binds; binding result [6]: binds
